Source: patent publication US10357514B2, “Treatment of cancer using anti-CD19 Chimeric Antigen Receptor” (The Trustees of the University of Pennsylvania, priority 2014, dated 2019)
Like-named read-outs stand apart in the source and are kept apart here. Marks after values point to notes of the source that are not given here.

Experiments:
[1] = cited from earlier work
P70 S6K = assay: Inhibition of P70 S6K activity in HeLa cells in vitro; conditions: Homo sapiens, read-out: % P70 S6K inhibition
H3N2 A/Victoria/210/2009 = assay: Hemagglutination inhibition titer and seroconversion after 2012 seasonal influenza vaccination; assay type: in vivo, human; conditions: for HI GMT ratio, A/H3N2: GMT at week 4 post vaccination/GMT at baseline; for Percent of subjects with seroconversion, H3N2: 4 weeks after vaccination
From the text: (§1) Results were expressed as fluorescence intensity.
(§2) The primary analysis of geometric mean titer ratios was done using a normal Bayesian regression model with non-informative priors. This model was fitted to each antibody titer on the log scale. The primary outcome in each model was the Day 84 measurement. The Day 63 measurement was included in the outcome vector. The model fitted using SAS 9.2 proc mixed with the prior statement. The covariance structure of the matrix was considered as unstructured (option type=UN). A flat prior was used. For the secondary analysis of seroconversion rates, logistic regression was used.
(§3) The ability of RAD001 to improve immune function in elderly volunteers was evaluated by measuring the serologic response to the 2012 seasonal influenza vaccine. The hemagglutination inhibition (HI) geometric mean titers (GMT) to each of the 3 influenza vaccine strains at baseline and 4 weeks after influenza vaccination are provided in Table 10. The primary analysis variable was the HI GMT ratio (4 weeks post vaccination/baseline). […] This endpoint was chosen because a 1.2-fold increase in the influenza GMT ratio induced by the MF-59 vaccine adjuvant was associated with a decrease in influenza illness (Iob, A et al. (2005) Epidemiol Infect 133:687-693).
(§4) Rates of seroconversion 4 weeks after influenza vaccination were also evaluated. Seroconversion was defined as the change from a negative pre-vaccination titer (i.e., HI titer <1:10) to post-vaccination HI titer ≥1:40 or at least 4-fold increase from a non-negative (≥1:10) pre-vaccination HI titer.

[2] = system: H1N1 A/California/07/2009; assay: as above; assay type: in vivo, human; conditions: for HI GMT ratio, A/H1N1: GMT at week 4 post vaccination/GMT at baseline; for Percent of subjects with seroconversion, H1N1: 4 weeks after vaccination
From the text: as §1, §2, §3, §4

B/Brisbane/60/2008 = assay: as above; assay type: in vivo, human; conditions: for HI GMT ratio, B: GMT at week 4 post vaccination/GMT at baseline; for Percent of subjects with seroconversion, B: 4 weeks after vaccination
From the text: as §1, §2, §3, §4

[3] = Baseline (2 weeks prior to influenza vaccination), 0.5 mg daily, N = 50
[4] = Baseline (2 weeks prior to influenza vaccination), 5 mg weekly, N = 49
[5] = Baseline (2 weeks prior to influenza vaccination), 20 mg weekly, N = 49
[6] = Intention to Treat Population, 0.5 mg, N = 48
[7] = Intention to Treat Population, 5 mg, N = 49
[8] = Intention to Treat Population, 20 mg, N = 48
[9] = Subjects with Baseline Titers <=40, 0.5 mg
[10] = Subjects with Baseline Titers <=40, 5 mg
[11] = Subjects with Baseline Titers <=40, 20 mg
[12] = Week 4 after influenza vaccination, 0.5 mg daily, N = 50
[13] = Week 4 after influenza vaccination, 5 mg weekly, N = 49
[14] = Week 4 after influenza vaccination, 20 mg weekly, N = 49

CO[C@H]1C[C@@H]2CC[C@@H](C)[C@@](O)(O2)C(=O)C(=O)N2CCCC[C@H]2C(=O)O[C@H]([C@H](C)C[C@@H]2CC[C@@H](OCCO)[C@H](OC)C2)CC(=O)[C@H](C)/C=C(\C)[C@@H](O)[C@@H](OC)C(=O)[C@H](C)C[C@H](C)/C=C/C=C/C=C/1C [RAD001, (1R,9S,12S,15R,16E,18R,19R,21R,23S,24E,26E,28E,30S,32S,35R)-1,18-dihydroxy-12-{(1R)-2-[(1S,3R,4R)-4-(2-hydroxyethoxy)-3-methoxycyclohexyl]-1-methylethyl}-19,30-dimethoxy-15,17,21,23,29,35-hexamethyl-11,36-dioxa-4-aza-tricyclo[30.3.1.04,9]hexatriaconta-16,24,26,28-tetraene-2,3,10,14,20-pentaone]
trough level of RAD001 ([1]; 10 mg daily oncology dosing regimen): approximately 20 ng/ml
trough level of RAD001 ([1]; 0.75-1.5 mg bid transplant dosing regimen): approximately 3 ng/ml
inhibition at 6 pM (P70 S6K): 0%
inhibition at 32 pM (P70 S6K): 18%
inhibition at 0.0008 µM (P70 S6K): 62%
inhibition at 0.004 µM (P70 S6K): 90%
inhibition at 0.02 µM (P70 S6K): 95%
HI GMT, A/H3N2 (H3N2 A/Victoria/210/2009; [3]): 106.8
HI GMT, A/H3N2 (H3N2 A/Victoria/210/2009; [4]): 126.04
HI GMT, A/H3N2 (H3N2 A/Victoria/210/2009; [5]): 137.1
HI GMT ratio, A/H3N2 (H3N2 A/Victoria/210/2009; 0.5 mg daily, N = 50): 2.1
HI GMT ratio, A/H3N2 (H3N2 A/Victoria/210/2009; 5 mg weekly, N = 49): 2.0
HI GMT ratio, A/H3N2 (H3N2 A/Victoria/210/2009; 20 mg weekly, N = 49): 2.1
Percent of subjects with seroconversion, H3N2 (H3N2 A/Victoria/210/2009; [6]): 27%
Percent of subjects with seroconversion, H3N2 (H3N2 A/Victoria/210/2009; [7]): 24%
Percent of subjects with seroconversion, H3N2 (H3N2 A/Victoria/210/2009; [8]): 25%
Percent of subjects with seroconversion, H3N2 (H3N2 A/Victoria/210/2009; [9]): 64%
Percent of subjects with seroconversion, H3N2 (H3N2 A/Victoria/210/2009; [10]): 53%
Percent of subjects with seroconversion, H3N2 (H3N2 A/Victoria/210/2009; [11]): 71%
HI GMT, A/H3N2 (H3N2 A/Victoria/210/2009; [12]): 194.4
HI GMT, A/H3N2 (H3N2 A/Victoria/210/2009; [13]): 223.0
HI GMT, A/H3N2 (H3N2 A/Victoria/210/2009; [14]): 223.0
HI GMT, A/H1N1 [2, 3]: 102.8
HI GMT, A/H1N1 [2, 4]: 84.2
HI GMT, A/H1N1 [2, 5]: 90.1
HI GMT ratio, A/H1N1 ([2]; 0.5 mg daily, N = 50): 2.6
HI GMT ratio, A/H1N1 ([2]; 5 mg weekly, N = 49): 2.5
HI GMT ratio, A/H1N1 ([2]; 20 mg weekly, N = 49): 1.8
Percent of subjects with seroconversion, H1N1 [2, 6]: 27%
Percent of subjects with seroconversion, H1N1 [2, 7]: 27%
Percent of subjects with seroconversion, H1N1 [2, 8]: 17%
Percent of subjects with seroconversion, H1N1 [2, 9]: 42%
Percent of subjects with seroconversion, H1N1 [2, 10]: 45%
Percent of subjects with seroconversion, H1N1 [2, 11]: 36%
HI GMT, A/H1N1 [2, 12]: 190.2
HI GMT, A/H1N1 [2, 13]: 198.73
HI GMT, A/H1N1 [2, 14]: 129.7
HI GMT, B (B/Brisbane/60/2008; [3]): 44.2
HI GMT, B (B/Brisbane/60/2008; [4]): 64.8
HI GMT, B (B/Brisbane/60/2008; [5]): 58.0
HI GMT ratio, B (B/Brisbane/60/2008; 0.5 mg daily, N = 50): 2.5
HI GMT ratio, B (B/Brisbane/60/2008; 5 mg weekly, N = 49): 2.2
HI GMT ratio, B (B/Brisbane/60/2008; 20 mg weekly, N = 49): 2.1
Percent of subjects with seroconversion, B (B/Brisbane/60/2008; [6]): 27%
Percent of subjects with seroconversion, B (B/Brisbane/60/2008; [7]): 22%
Percent of subjects with seroconversion, B (B/Brisbane/60/2008; [8]): 19%
Percent of subjects with seroconversion, B (B/Brisbane/60/2008; [9]): 40* Percent
Percent of subjects with seroconversion, B (B/Brisbane/60/2008; [10]): 33%
Percent of subjects with seroconversion, B (B/Brisbane/60/2008; [11]): 28%
HI GMT, B (B/Brisbane/60/2008; [12]): 98.4
HI GMT, B (B/Brisbane/60/2008; [13]): 117.3
HI GMT, B (B/Brisbane/60/2008; [14]): 99.2
